Test results: ChEMBL document CHEMBL6092214, “Design, synthesis, and pharmacological characterization of sulfonylurea-based NLRP3 inhibitors: Towards an effective therapeutic strategy for Alzheimer's disease” (Eur J Med Chem, 2024)
Active and inactive are the calls of the source. No cut-off for these calls is given here.

Tests used:
[1] = target: NACHT, LRR and PYD domains-containing protein 3 (Homo sapiens, UniProt Q96P20); experiment: Inhibition of NLRP3 inflammasome activation in PMA-differentiated human THP-1 cells assessed as reduction in LPS/MSU-induced IL-1beta secretion preincubated with LPS for 3 hrs followed by compound addition for 30 mins prior to MSU addition and measured after 4 hrs by ELISA method; assay type: cell-based
Chain of NACHT, LRR and PYD domains-containing protein 3 (Q96P20 whole entry, the tested form may be a part): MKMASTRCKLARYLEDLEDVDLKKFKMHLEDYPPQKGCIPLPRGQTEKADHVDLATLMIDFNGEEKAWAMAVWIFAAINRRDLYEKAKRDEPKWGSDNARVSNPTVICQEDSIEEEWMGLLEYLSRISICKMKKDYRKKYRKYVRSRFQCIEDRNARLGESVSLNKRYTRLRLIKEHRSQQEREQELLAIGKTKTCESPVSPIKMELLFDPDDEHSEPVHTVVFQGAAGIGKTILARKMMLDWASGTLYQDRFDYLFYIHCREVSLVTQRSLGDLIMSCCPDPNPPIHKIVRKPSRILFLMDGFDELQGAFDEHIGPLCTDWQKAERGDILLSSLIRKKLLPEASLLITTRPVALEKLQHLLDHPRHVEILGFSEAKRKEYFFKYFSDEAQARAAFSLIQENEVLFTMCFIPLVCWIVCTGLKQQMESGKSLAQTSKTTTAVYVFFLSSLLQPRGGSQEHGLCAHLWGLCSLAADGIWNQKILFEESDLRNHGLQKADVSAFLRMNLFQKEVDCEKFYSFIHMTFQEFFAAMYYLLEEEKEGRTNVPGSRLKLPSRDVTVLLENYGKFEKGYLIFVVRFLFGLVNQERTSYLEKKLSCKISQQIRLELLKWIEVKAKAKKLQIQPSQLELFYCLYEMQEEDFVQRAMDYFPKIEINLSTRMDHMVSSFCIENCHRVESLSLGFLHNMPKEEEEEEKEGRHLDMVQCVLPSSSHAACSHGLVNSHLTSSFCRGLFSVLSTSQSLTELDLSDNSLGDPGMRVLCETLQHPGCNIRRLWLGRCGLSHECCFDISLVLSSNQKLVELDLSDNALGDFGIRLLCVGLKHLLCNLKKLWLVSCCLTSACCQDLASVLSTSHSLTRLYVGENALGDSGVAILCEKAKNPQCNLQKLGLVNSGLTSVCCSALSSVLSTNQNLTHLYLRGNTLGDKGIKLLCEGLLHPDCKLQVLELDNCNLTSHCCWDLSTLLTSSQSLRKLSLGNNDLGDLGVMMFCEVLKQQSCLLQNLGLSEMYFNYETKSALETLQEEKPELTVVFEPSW

[2] = system: Mus musculus; experiment: Neuroprotective activity against scopolamine-induced cognitive impairment in AD mouse model assessed as reduction in escape latency at 10 mg/kg administered daily by Morris water maze test; assay type: functional, organism-based

Row | Structure (SMILES) | IC50 [1] [nM] | Activity [2]
1 | CC(C)(O)CS(=O)(=O)NC(=O)Nc1c(-c2ccc([N+](=O)[O-])cc2)ccc2c1CCC2 | > 1000 | 
2 | O=C(Nc1c(-c2ccc([N+](=O)[O-])cc2)ccc2c1CCC2)NS(=O)(=O)c1ccccc1 | 355 | 
3 | O=C(Nc1c(-c2ccc([N+](=O)[O-])cc2)ccc2c1CCC2)NS(=O)(=O)N1CCOCC1 | > 1000 | 
4 | O=C(Nc1c(-c2ccc([N+](=O)[O-])cc2)ccc2c1CCC2)NS(=O)(=O)c1cnn2c1OCCC2 | 674 | 
5 | O=C(Nc1c(-c2ccc([N+](=O)[O-])cc2)ccc2c1CCC2)NS(=O)(=O)c1cc(Br)cs1 | > 1000 | 
6 | CC(C)(O)c1coc(S(=O)(=O)NC(=O)Nc2c3c(cc4c2CCC4)CCC3)c1 |  | Active
7 | COc1cncc(-c2ccc3c(c2NC(=O)NS(=O)(=O)c2cc(C(C)(C)O)co2)CCC3)c1 | 32 | 
8 | CCCCNS(=O)(=O)c1cccc(-c2ccc3c(c2NC(=O)NS(=O)(=O)c2cc(C(C)(C)O)co2)CCC3)c1 | > 1000 | 
9 | O=C(Nc1c(-c2ccc([N+](=O)[O-])cc2)ccc2c1CCC2)NS(=O)(=O)N1CCCC1 | > 1000 | 
10 | CC(C)c1cccc(-c2ccc3c(c2NC(=O)NS(=O)(=O)c2cc(C(C)(C)O)co2)CCC3)c1 | > 1000 | 
11 | CN[C@H]1COc2c(S(=O)(=O)NC(=O)Nc3c(-c4ccc([N+](=O)[O-])cc4)ccc4c3CCC4)cnn2C1 | 260 | 
12 | CCOc1ccc2cc(-c3ccc4c(c3NC(=O)NS(=O)(=O)c3cc(C(C)(C)O)co3)CCC4)ccc2c1 | 72 | 
13 | Nc1cccc(S(=O)(=O)NC(=O)Nc2c(-c3ccc([N+](=O)[O-])cc3)ccc3c2CCC3)c1 | 403 | 

Now from value to molecule, other results behind:

Row | IC50 [1] [nM] | Structure (SMILES) | Activity [2]
14 | 54 | O=C(Nc1c(-c2ccc([N+](=O)[O-])cc2)ccc2c1CCC2)NS(=O)(=O)c1cccs1 | 
15 | 426 | CC(=O)c1ccc(S(=O)(=O)NC(=O)Nc2c(-c3ccc([N+](=O)[O-])cc3)ccc3c2CCC3)cc1 | 
16 | 287 | CCCCOc1cccc(-c2ccc3c(c2NC(=O)NS(=O)(=O)c2cc(C(C)(C)O)co2)CCC3)c1 | 
17 | 31 | CC(C)c1cc(I)cc(C(C)C)c1NC(=O)NS(=O)(=O)c1cc(C(C)(C)O)co1 | 
18 | > 1000 | Cc1ccc(S(=O)(=O)NC(=O)Nc2c(-c3ccc([N+](=O)[O-])cc3)ccc3c2CCC3)cc1 | 
19 | > 1000 | Cc1nn(C)cc1S(=O)(=O)NC(=O)Nc1c(-c2ccc([N+](=O)[O-])cc2)ccc2c1CCC2 | 
20 | 212 | O=C(Nc1c(-c2ccc([N+](=O)[O-])cc2)ccc2c1CCC2)NS(=O)(=O)c1cccc(Br)n1 | 
21 | > 1000 | Cn1ccc(S(=O)(=O)NC(=O)Nc2c(-c3ccc([N+](=O)[O-])cc3)ccc3c2CCC3)n1 | 
